Data published in patent US20100099614A1, “Antimicrobial Peptides and Methods of Use” (priority 2008, published 2010).
Where “and” joins values, the source holds several entries; their conditions need not be identical. Identical values can stand only once. Like-named read-outs stand apart in the source and are kept apart here.

How the values were obtained:
[1] = tested on: Gram-negative bacteria; assay: Antibacterial activity (MIC), microtiter dilution; type: cell-based
Method: MICs were determined by a standard microtiter dilution method in Mueller Hinton Broth (MHB). Serial dilutions of the 10× compound were added to the microtiter plates in a volume of 10 μL followed by 90 μL of bacteria for an inoculum of 5×10^5 colony-forming units (CFU)/mL. The plates were incubated at 37° C. for 24 h, and the MICs were determined as the lowest peptide concentration that inhibited growth. […]
Alternatively; minimal inhibitory concentrations were determined using a standard microtiter dilution method in a Mueller-Hinton (MH) medium. Briefly, cells were grown overnight at 37° C. in MH broth and diluted in the same medium. Serial dilutions of the peptides were added to the microtiter plates in a volume of 100 μl followed by 10 μl of bacteria for an initial cell concentration of 1×10^5 CFU/ml. Plates were incubated at 37° C. for 24 hours and MICs determined as the lowest peptide concentration that inhibited growth.

[2] = tested on: Zygomycota fungi
[3] = tested on: Ascomycota fungi; conditions: Ascomycota fungi
[4] = Peptide hydrophobicity by RP-HPLC retention; type: physicochemical; conditions: pH 2, room temperature
Method: Peptide Synthesis and Purification—Syntheses of the peptides were carried out by solid-phase peptide synthesis using t-butyloxycarbonyl chemistry and MBHA (4-methylbenzhydrylamine) resin (0.97 mmol/g), followed by cleavage of the peptide from the resin as described previously (117-119). However, it is understood in the art that there are other suitable instruments and methods for automated or manual peptide synthesis that could be employed to produce the peptides described herein. Peptide purification was performed by reversed-phase high-performance liquid chromatography (RP-HPLC) on a Zorbax 300 SB-C8 column (250×9.4 mm I.D.; 6.5 μm particle size, 300 Å pore size; Agilent Technologies, Little Falls, Del.) with a linear AB gradient (0.1% acetonitrile/min) at a flow rate of 2 mL/min, where eluent A was 0.2% aqueous trifluoroacetic acid (TFA), pH 2, and eluent B was 0.2% TFA in acetonitrile, where the shallow 0.1% acetonitrile/min gradient started 12% below the acetonitrile concentration required to elute the peptide on injection of analytical sample using a gradient of 1% acetonitrile/min (113). The purity of the peptides was verified by analytical RP-HPLC as described below and further characterized by mass spectrometry and amino acid analysis. Crude and purified peptides were analyzed on an Agilent 1100 series liquid chromatograph. Runs were performed on a Zorbax 300 SB-C8 column (150×2.1 mm I.D.; 5 μm particle size, 300 Å pore size) from Agilent Technologies using a linear AB gradient (1% acetonitrile/min) and a flow rate of 0.25 mL/min, where eluent A was 0.2% aqueous TFA, pH 2, and eluent B was 0.2% TFA in acetonitrile.
Analytical RP-HPLC of Peptides—Peptides were analyzed on an Agilent 1100 series liquid chromatograph (Little Falls, Del.). Runs were performed on a Zorbax 300 SB-C8 column (150×2.1 mm I.D.; 5 μm particle size, 300 Å pore size) from Agilent Technologies using linear AB gradient (1% acetonitrile/min) and a flow rate of 0.25 ml/min, where solvent A was 0.05% aqueous TFA, pH 2 and solvent B was 0.05% TFA in acetonitrile. Temperature profiling analyses were performed in 3° C. increments, from 5° C. to 80° C.

[5] = tested on: human red blood cells; assay: Hemolytic activity (MHC50/HC50), 18 h microtiter dilution; type: cell-based; conditions: red cells of human, 18 h
Method: Hemoglobin release was determined spectrophotometrically at 570 nm. […] MHC50 was determined by plot the concentration-lysis format.

[6] = tested on: Gram-positive bacteria
[7] = Helical structure by circular dichroism spectroscopy; type: physicochemical; conditions: 222 nm
Method: The mean residue molar ellipticities of peptides were determined by circular dichroism (CD) spectroscopy, using a Jasco J-810 spectropolarimeter (Easton, Md.) at 5° C. under benign (non-denaturing) conditions (50 mM NaH2PO4/Na2HPO4/100 mM KCl, pH 7.0), hereafter referred to as benign buffer, as well as in the presence of an α-helix inducing solvent, 2,2,2-trifluoroethanol, TFE, (50 mM NaH2PO4/Na2HPO4/[…], pH 7.0 buffer/50% TFE). A 10-fold dilution of an approximately […] stock solution of the peptide analogs was loaded into a 0.1 cm quartz cell and its ellipticity scanned from 195 to 250 nm. The values of molar ellipticities of the peptide analogs at a wavelength of 222 nm were used to estimate the relative α-helicity of the peptides.

[8] = tested on: Interleukin-6 (IL-6); assay: Cytokine assay, stimulation of peripheral blood mononuclear cells, ELISA; type: cell-based, human
Method: (§1) Isolation of peripheral blood mononuclear cells (PBMCs) from 5 healthy individuals was performed as described elsewhere (108). Briefly, venous blood was drawn into 10 ml tubes containing 0.2 mg of EDTA (Monoject's-Hertogenbosch, NL). The PBMC fraction was obtained by density centrifugation of blood using Ficoll-Paque (Pharmacia Biotech AB, Sweden). […] The PBMCs were incubated in 96-well tissue culture plates (Greiner, Alphen, NL) at a concentration of 5×10^5 cells per well in a total volume of 200 μl, in the presence or absence of a set of stimuli in different experiments. […] After 24 h of incubation, the supernatants were collected and stored at -80° C. until analysis. Interleukin-6 (IL-6) and tumor necrosis factor (TNF) were measured by ELISA according to the manufacturer's protocol ([…], CLB, Amsterdam, NL). […] Agilent Technologies) with a linear AB gradient (0.2% acetonitrile/min) at a flow rate of 2 ml/min, where mobile phase A was 0.1% aqueous TFA in water and B was 0.1% TFA in acetonitrile. The purity of peptides was verified by analytical RP-HPLC. The peptides were further characterized by electrospray mass spectrometry and amino acid analysis.

[9] = tested on: tumor necrosis factor (TNF); assay: as above; type: cell-based, human
Method: as §1

[10] = tested on: Mycobacterium tuberculosis strain H37Rv
[11] = tested on: Mycobacterium tuberculosis strain H37Rv; assay: microbe, parasite or virus in culture
[12] = 50% trifluoroethanol (TFE), 5° C.; cited from earlier work
[13] = target: Peptide D1, D-(V13K); assay: RP-HPLC temperature profiling at pH 2, maximal retention time difference against control peptide C; self-association
[14] = target: Peptide D5, D-(V13K, A12L, A20L, A23L, V16K); assay: as above
[15] = target: the molecule itself; assay: RP-HPLC temperature profiling, 5 to 80 C, pH 2 (self-association)
Method: Thus, if the self-association ability of a peptide in aqueous media is too strong (e.g., forming stable folded dimers through interaction of their non-polar faces) this could decrease the ability of the peptide to dissociate to monomer where the dimer cannot effectively pass through the capsule and cell wall to reach the membrane. The ability of the peptides in the present study to self-associate was determined by the technique of RP-HPLC temperature profiling at pH 2 (30,29,42). The reason pH 2 is used to determine self-association of cationic AMPs is that highly positively charged peptides are frequently not eluted from reversed-phase columns at pH 7 due to non-specific binding to negatively charged silanols on the column matrix. This is not a problem at pH 2 since the silanols are protonated (i.e., neutral) and non-specific electrostatic interactions are eliminated. At pH 2, the interactions between the peptide and the reversed-phase matrix involve ideal retention behavior, i.e., only hydrophobic interactions between the preferred binding domain (nonpolar face) of the amphipathic molecule and the hydrophobic surface of the column matrix are present (39). […]

[16] = peptide concentration 0.01 μg/ml
[17] = peptide concentration 100 μg/ml

CC[C@@H](C)[C@@H](NC(=O)[C@@H](CC(C)C)NC(=O)[C@@H](CCCCN)NC(=O)[C@@H](CC(C)C)NC(=O)[C@@H](CC(C)C)NC(=O)[C@H](NC(=O)[C@@H](Cc1c[nH]cn1)NC(=O)[C@@H](CC(C)C)NC(=O)[C@@H](CCCCN)NC(=O)[C@H](NC(=O)[C@@H](CCCCN)NC(=O)[C@@H](CCCCN)NC(=O)[C@@H](CC(C)C)NC(=O)[C@@H](CO)NC(=O)[C@@H](CCCCN)NC(=O)[C@@H](Cc1ccccc1)NC(=O)[C@H](NC(=O)[C@@H](CCCCN)NC(=O)[C@@H](CC(C)C)NC(=O)[C@@H](Cc1ccccc1)NC(=O)[C@@H](CO)NC(=O)[C@@H](CCCCN)NC(=O)[C@@H](Cc1c[nH]c2ccccc12)NC(=O)[C@@H](CCCCN)NC(C)=O)[C@H](C)O)[C@H](C)O)[C@H](C)O)C(=O)N[C@H](CO)C(=O)N[C@H](CO)C(N)=O [D5]
increase in antibacterial activity compared to D4 ([1]; gram-negative bacteria): 2 fold | Fold improvement in antimicrobial activity (geometric mean data) compared to that of D4, Gram-negative bacteria ([1]; relative to D4): 2.2 fold | MIC GM (geometric mean of the MIC values), Gram-negative bacteria ([1]; six Gram-negative strains, 128 μg/mL used where no activity at 64 μg/mL): 10.1 µg/mL | increase in antifungal activity relative to D4 ([2]; Zygomycota fungi): 16 fold | Fold improvement in antifungal activity (geometric mean data) compared to that of D4, Zygomycota fungi ([2]; relative to D4): 16.0 fold | antifungal activity relative to D4 [3]: maintained the same level | Hydrophobicity tR (retention time in RP-HPLC) [4]: 80.4 min | Hemolytic activity HC50 [5]: 14.9 µM | MIC GM (geometric mean of the MIC values), Gram-positive bacteria ([6]; 24 h): 9.0 µg/mL | increase in antibacterial activity compared to D4 ([6]; gram-positive bacteria): 2 fold | Fold improvement in antimicrobial activity (geometric mean data) compared to that of D4, Gram-positive bacteria ([6]; relative to D4): 1.8 fold | 50% TFE [θ]222 (mean residue molar ellipticity) ([7]; benign buffer containing 50% trifluoroethanol): 35,500 deg cm^2/dmol | Benign [θ]222 (mean residue molar ellipticity) ([7]; benign conditions (100 mM KCl, 50 mM NaH2PO4/Na2HPO4, pH 7.0)): 3,700 deg cm^2/dmol | IL-6 Exp 1 [8, 16]: <3 pg/mL | IL-6 Exp 2 [8, 16]: <3 pg/mL | IL-6 Exp 1 ([8]; peptide concentration 1 μg/ml): <3 pg/mL | IL-6 Exp 1 [8, 17]: <3 pg/mL | IL-6 Exp 2 [8, 17]: <3 pg/mL | TNF Exp 1 [9, 16]: <0.015 ng/mL | TNF Exp 2 [9, 16]: <0.015 ng/mL | TNF Exp 1 ([9]; peptide concentration 1 μg/ml): <0.015 ng/mL | TNF Exp 2 ([9]; peptide concentration 1 μg/ml): <0.015 ng/mL | reduction in viability (CFU/ml) ([10]; 100 μg/ml (31.7 μM), 7 days incubation vs day 0): about 100 fold | Anti-tuberculosis activity to H37Rv strain Fold (compared to D4) ([10]; further experiments, relative to D4): 4.9 fold

CO[C@H]1/C=C/O[C@@]2(C)Oc3c(C)c(O)c4c(O)c(c(/C=N/N5CCN(C)CC5)c(O)c4c3C2=O)NC(=O)/C(C)=C\C=C\[C@H](C)[C@H](O)[C@@H](C)[C@@H](O)[C@@H](C)[C@H](OC(C)=O)[C@@H]1C [rifampin]
MIC ([11]; 168 h, read-out: Anti-tuberculosis activity MIC): 0.033 µM and 0.027 µg/mL | MIC ([11]; read-out: Anti-tuberculosis activity to H37Rv strain MIC): 0.033 µM and 0.027 µg/mL

Ac-ELEKGGLEGEKGGKELEK-amide (Ac-ELEKGGLEGEKGGKELEK-NH2) [peptide C]
[θ]222 [12]: −3,950

B1: Peptide D1, D-(V13K) (peptide)
peptide: KWKSFLKTFKSAKKTVLHTALKAISS
modifications: all residues D-amino acids; N-terminal Nα-acetyl; C-terminal amide
PA (dimerization / self-association parameter) [13]: 2.78

B2: Peptide D5, D-(V13K, A12L, A20L, A23L, V16K) (peptide)
peptide: KWKSFLKTFKSLKKTKLHTLLKLISS
modifications: all residues D-amino acids; N-terminal Nα-acetyl; C-terminal amide
PA (dimerization / self-association parameter) [14]: 4.35

B3: Control peptide C (random coil peptide) (peptide)
peptide: Ac-ELEKGGLEGEKGGKELEK-NH2
binding result [15]: no binding
